This is an account of results in PubChem BioAssay AID330 (DTP/NCI, 2004).

Values joined by “and” are separate entries in the source; they are usually repeats but may differ in a detail not shown here. Identical values can stand only once. Toxic doses and inconclusive results are not listed.

The test system of this test is P388 leukemia ip, CD2F1 mice, survival T/C. Put plainly: NCI In Vivo Anticancer Drug Screen. Data for tumor model P388 Leukemia (intraperitoneal) in CD2F1 (CDF1) mice. Particulars: endpoint: median survival time, higher = longer survival. The gist of the method: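 Mice carrying the transplanted tumor received test compound or vehicle. Survival was recorded in each group, and the value is the treated-group measurement divided by that of the vehicle-treated control group.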

The mark [1] stands for this setting: dose: 50.0 mg/kg/injection, schedule: Q01DX009 (ip), vehicle: Klucel (hydroxypropylcellulose) (HPC).
[2] abbreviates: dose: 50.0 mg/kg/injection, schedule: Q01DX009 (ip), vehicle: saline with Tween-80.
[3] abbreviates: dose: 50.0 mg/kg/injection, schedule: Q01DX009 (ip), vehicle: saline.
Where [4] appears, read: dose: 100.0 mg/kg/injection, schedule: Q01DX009 (ip), vehicle: saline with Tween-80.
[5] abbreviates: dose: 100.0 mg/kg/injection, schedule: Q01DX009 (ip), vehicle: saline.
Setting [6] is: dose: 200.0 mg/kg/injection, schedule: Q01DX009 (ip), vehicle: Klucel (hydroxypropylcellulose) (HPC).
The mark [7] stands for this setting: dose: 200.0 mg/kg/injection, schedule: Q01DX009 (ip), vehicle: saline with Tween-80.
The mark [8] stands for this setting: dose: 200.0 mg/kg/injection, schedule: Q04DX003 (ip), vehicle: Klucel (hydroxypropylcellulose) (HPC).
Setting [9] is: dose: 60.0 mg/kg/injection, schedule: Q01DX005 (ip), vehicle: saline with Tween-80.
Setting [10] is: dose: 120.0 mg/kg/injection, schedule: Q01DX005 (ip), vehicle: saline with Tween-80.
[11] abbreviates: dose: 240.0 mg/kg/injection, schedule: Q01DX005 (ip), vehicle: saline with Tween-80.
Setting [12] is: dose: 100.0 mg/kg/injection, schedule: Q01DX009 (ip), vehicle: Klucel (hydroxypropylcellulose) (HPC).

Regarding `OC(CBr)C(O)C(O)C(O)CBr` (centres undefined), the T/C was 106 % of control (dose: 12.5 mg/kg/injection, schedule: Q01DX009 (ip), vehicle: Klucel (hydroxypropylcellulose) (HPC)); 107 % of control and 109 % of control (dose: 36.0 mg/kg/injection, schedule: Q01DX005 (ip), vehicle: Klucel (hydroxypropylcellulose) (HPC)); 115 % of control under setting [1]; 114 % of control (dose: 50.0 mg/kg/injection, schedule: Q01DX009 (ip), vehicle: distilled water + Tween-80); 107 % of control under setting [2]; 96 % of control under setting [3]. Further, the T/C is, setting by setting: (dose: 50.0 mg/kg/injection, schedule: Q01DX010 (ip), vehicle: saline) 109 % of control; (dose: 53.0 mg/kg/injection, schedule: Q01DX005 (ip), vehicle: Klucel (hydroxypropylcellulose) (HPC)) 120 % of control; (dose: 80.0 mg/kg/injection, schedule: Q01DX005 (ip), vehicle: Klucel (hydroxypropylcellulose) (HPC)) 173 % of control; (dose: 100.0 mg/kg/injection, schedule: Q01DX009 (ip), vehicle: distilled water + Tween-80) 124 % of control; under setting [4], 114 % of control; under setting [5], 123 % of control. Moreover, the T/C is 109 % of control (dose: 100.0 mg/kg/injection, schedule: Q01DX010 (ip), vehicle: saline); 170 % of control and 207 % of control (dose: 120.0 mg/kg/injection, schedule: Q01DX005 (ip), vehicle: Klucel (hydroxypropylcellulose) (HPC)); 163 % of control and 181 % of control (dose: 180.0 mg/kg/injection, schedule: Q01DX005 (ip), vehicle: Klucel (hydroxypropylcellulose) (HPC)); 107 % of control under setting [6]; 122 % of control (dose: 200.0 mg/kg/injection, schedule: Q01DX009 (ip), vehicle: distilled water + Tween-80); 113 % of control under setting [7]. The T/C is, setting by setting: (dose: 200.0 mg/kg/injection, schedule: Q01DX010 (ip), vehicle: saline) 109 % of control; under setting [8], 190 % of control; (dose: 300.0 mg/kg/injection, schedule: Q04DX003 (ip), vehicle: Klucel (hydroxypropylcellulose) (HPC)) 200 % of control; (dose: 400.0 mg/kg/injection, schedule: Q01DX009 (ip), vehicle: Klucel (hydroxypropylcellulose) (HPC)) 93 % of control; (dose: 400.0 mg/kg/injection, schedule: Q01DX009 (ip), vehicle: distilled water + Tween-80) 86 % of control; (dose: 400.0 mg/kg/injection, schedule: Q01DX009 (ip), vehicle: saline with Tween-80) 117 % of control. Also, the T/C (dose: 800.0 mg/kg/injection, schedule: Q01DX009 (ip), vehicle: saline with Tween-80) is 120 % of control.

For `[N-]=[N+]=Nc1ccnc2cc(Cl)ccc12`, the T/C by setting is: under setting [9], 108 % of control; under setting [10], 100 % of control; under setting [11], 104 % of control.

As to `CC1=CC(C)C/C=C/C2C3OC3(C)C(C)C3C(Cc4c[nH]c5ccccc45)NC(=O)C23C(=O)C=CC(=O)C1O` (centres undefined), the T/C by setting is: (dose: 0.2 mg/kg/injection, schedule: Q01DX005 (ip), vehicle: Klucel (hydroxypropylcellulose) (HPC)) 102 % of control; (dose: 0.4 mg/kg/injection, schedule: Q01DX005 (ip), vehicle: Klucel (hydroxypropylcellulose) (HPC)) 97 % of control; (dose: 0.8 mg/kg/injection, schedule: Q01DX005 (ip), vehicle: Klucel (hydroxypropylcellulose) (HPC)) 106 % of control; (dose: 1.6 mg/kg/injection, schedule: Q01DX005 (ip), vehicle: Klucel (hydroxypropylcellulose) (HPC)) 107 % of control; (dose: 2.0 mg/kg/injection, schedule: Q01DX005 (ip), vehicle: Klucel (hydroxypropylcellulose) (HPC)) 109 % of control; (dose: 16.0 mg/kg/injection, schedule: Q01DX005 (ip), vehicle: Klucel (hydroxypropylcellulose) (HPC)) 117 % of control.

Turning to `O=c1[nH]c2cc([N+](=O)[O-])ccc2nc1/C=C(\O)c1cccc2ccccc12`, the T/C is, setting by setting: (dose: 30.0 mg/kg/injection, schedule: Q01DX005 (ip), vehicle: Klucel + Tween-80) 91 % of control; (dose: 60.0 mg/kg/injection, schedule: Q01DX005 (ip), vehicle: Klucel + Tween-80) 87 % of control and 94 % of control; (dose: 120.0 mg/kg/injection, schedule: Q01DX005 (ip), vehicle: Klucel + Tween-80) 86 % of control; (dose: 240.0 mg/kg/injection, schedule: Q01DX005 (ip), vehicle: Klucel + Tween-80) 88 % of control.

Regarding `C=C(C)Cn1c(=O)n(CC)c(=O)c2[nH]c(Cl)nc21`, the T/C is 108 % of control (dose: 16.0 mg/kg/injection, schedule: Q01DX009 (ip), vehicle: Klucel (hydroxypropylcellulose) (HPC)); 107 % of control (dose: 32.0 mg/kg/injection, schedule: Q01DX009 (ip), vehicle: Klucel (hydroxypropylcellulose) (HPC)); 95 % of control under setting [1]; 117 % of control (dose: 64.0 mg/kg/injection, schedule: Q01DX009 (ip), vehicle: Klucel (hydroxypropylcellulose) (HPC)); 100 % of control under setting [12]; 101 % of control under setting [6].

As for `O=C1c2ccccc2C(=O)c2c(NCCC3CCCN4CCCCC34)cccc21` (centres undefined), the T/C (dose: 50.0 mg/kg/injection, schedule: Q01DX005 (ip), vehicle: Klucel (hydroxypropylcellulose) (HPC)) is 94 % of control; the T/C (dose: 100.0 mg/kg/injection, schedule: Q01DX005 (ip), vehicle: Klucel (hydroxypropylcellulose) (HPC)) was 97 % of control; the T/C (dose: 200.0 mg/kg/injection, schedule: Q01DX005 (ip), vehicle: Klucel (hydroxypropylcellulose) (HPC)) is 96 % of control.

`CC(=O)CC(=O)CCCCCCC(=O)O`: the T/C is, setting by setting: under setting [2], 103 % of control; under setting [4], 100 % of control; under setting [7], 100 % of control.

For the compound `O=C(Nc1ccc(Cl)cc1)Nc1nnc(-c2ccccc2Br)o1`, the T/C is, setting by setting: under setting [9], 105 % of control; under setting [10], 94 % of control; under setting [11], 95 % of control.

With `COC(=O)c1nnn(-c2ccccc2C(C)C)c1C(=O)c1ccccc1`, the T/C runs as follows: under setting [9], 94 % of control; under setting [10], 109 % of control; under setting [11], 104 % of control.

For the compound `CCON(C=Nc1ccc(Cl)c(Cl)c1)c1ccc(Cl)c(Cl)c1`, the T/C was 103 % of control under setting [3]; 102 % of control under setting [5]; 91 % of control (dose: 200.0 mg/kg/injection, schedule: Q01DX009 (ip), vehicle: saline).

Take `Cc1ccc(S(=O)(=O)C2CC(=O)N(c3ccc(F)c(Cl)c3)C2=O)cc1` (centres undefined): the T/C by setting is: (dose: 100.0 mg/kg/injection, schedule: Q04DX002 (ip), vehicle: saline with Tween-80) 94 % of control; (dose: 200.0 mg/kg/injection, schedule: Q04DX002 (ip), vehicle: saline with Tween-80) 94 % of control; (dose: 400.0 mg/kg/injection, schedule: Q04DX002 (ip), vehicle: saline with Tween-80) 96 % of control.

With `O=C1N(c2ccccc2)C(=Nc2ccccc2)C(=Nc2ccccc2)N1c1ccccc1`, the T/C was 96 % of control (dose: 50.0 mg/kg/injection, schedule: Q01DX005 (ip), vehicle: Klucel + Tween-80); 91 % of control (dose: 100.0 mg/kg/injection, schedule: Q01DX005 (ip), vehicle: Klucel + Tween-80); 92 % of control (dose: 200.0 mg/kg/injection, schedule: Q01DX005 (ip), vehicle: Klucel + Tween-80).

Regarding `S=c1[nH]nc(-c2cnns2)o1`, the T/C is, setting by setting: (dose: 50.0 mg/kg/injection, schedule: Q04DX003 (ip), vehicle: Klucel (hydroxypropylcellulose) (HPC)) 103 % of control; (dose: 100.0 mg/kg/injection, schedule: Q04DX003 (ip), vehicle: Klucel (hydroxypropylcellulose) (HPC)) 98 % of control; under setting [8], 107 % of control.

Regarding `CCOC(=O)CN1C(=S)CSC1=S`, the T/C was 106 % of control under setting [1]; 98 % of control under setting [12]; 107 % of control and 109 % of control under setting [6].

Regarding `OC(c1ccccc1)(c1ccc(Br)cc1)C1CC1` (centres undefined), the T/C is 100 % of control (dose: 25.0 mg/kg/injection, schedule: Q01DX001 (ip), vehicle: Klucel (hydroxypropylcellulose) (HPC)); 96 % of control (dose: 50.0 mg/kg/injection, schedule: Q01DX001 (ip), vehicle: Klucel (hydroxypropylcellulose) (HPC)); 97 % of control (dose: 100.0 mg/kg/injection, schedule: Q01DX001 (ip), vehicle: Klucel (hydroxypropylcellulose) (HPC)).
